Laboratory results as given in article PMC7998250, “Temperate Zone Plant Natural Products—A Novel Resource for Activity against Tropical Parasitic Diseases” (Pharmaceuticals, 2021).
Like-named read-outs stand apart in the source and are kept apart here.

Columns and labels:
P. falciparum Dd2Luc = assay: Concentration-response EC50, P. falciparum Dd2Luc; assay type: cell-based, Plasmodium falciparum; conditions: Plasmodium falciparum, 48 h, read-out: P. falciparum Dd2Luc EC50, intraerythrocytic, 48 h
Description: (§4) EC50 values were determined by serial two-fold dilution of each compound in 96 well plates. Culture conditions and viability assays were as stated for the initial screen, with some exceptions. L. mexicana and L. donovani axenic amastigotes were seeded at 2 × 10^6 cell/s mL, T. brucei and T. evansi were seeded at 2 × 10^5 cells/mL. For cytotoxicity studies, HepG2 cells were seeded at 1 × 10^5 cells/mL, incubated for 48 h and viability was assessed using the Alamar Blue assay [66, 67]. […] Normalised growth and viability data (compared to untreated controls) were plotted against Log10 concentration to estimate EC50 in GraphPad (Prism v6).

[1] = system: T. brucei bloodstream form; assay: Initial screen, T. brucei bloodstream form, Alamar Blue; assay type: cell-based, Trypanosoma brucei brucei; conditions: for initial hit against T. brucei: growth reduced by ≥50%; for inhibition of growth at 2 µM / activity at 2 µM: Trypanosoma brucei; for inhibition of growth at 2 µM: read-out: initial hit T.b
Description: (§1) 634 compounds from the PhytoQuest Phytopure temperate plant natural product library were screened for growth inhibitory activity against L. mexicana axenic amastigotes, T. brucei bloodstream form, intraerythrocytic asexual P. falciparum (at 2 μM) and T. evansi bloodstream form parasites (at 1 μM). […] Our initial hits were defined as reducing growth of the parasite by ≥50%.
(§2) L. mexicana strain MNYC/BZ/62/M379 and L. donovani strain LdBOB (a clonal line from strain MHOM/SD/62/1S-CL2) were maintained in vitro in the procyclic promastigote stage. Parasites were cultivated at 26 °C in Schneider’s medium (Gibco) pH 7.0 containing 10% FBS, 100 U/mL penicillin (Lonza) and 100 μg/mL streptomycin (Lonza) as previously described. Differentiation into axenic amastigotes was performed as described previously. Briefly, axenic amastigotes were cultivated at 32 °C in Schneider’s medium pH 5.5 containing 10% FBS, 100 U/mL penicillin (Lonza) and 100 μg/mL streptomycin (Lonza). Bloodstream form T. brucei brucei strain Lister 427 and T. evansi strain Antat 3/3 [59] were maintained in vitro at 37 °C with 5% (v/v) CO2 in HMI-11 medium supplemented with 10% FBS, as described elsewhere. Intraerythrocytic cultures of P. falciparum Dd2^Luc strain [62] were maintained at 37 °C in a 1% O2:3% CO2:96% N2 atmosphere in RPMI-1640 containing 37.5 mM HEPES, 5 mM NaOH, 10 mM D-glucose, 2 mM L-glutamine, 100 μM hypoxanthine, […] gentamicin sulfate, 5% human serum and 5% albumax-II and 2% haematocrit erythrocytes. When required, cultures were synchronised to ring stages using the sorbitol lysis method. Preliminary cytotoxicity screening was assessed using HepG2 cells. These cells were maintained in vitro at 37 °C with 5% (v/v) CO2 in DMEM (Sigma) pH 7 supplemented with 10% FBS, 100 U/mL penicillin (Lonza) and 100 μg/mL streptomycin (Lonza), as previously described. The human monocyte cell line THP-1 [68] was maintained in vitro by culturing at 37 °C with 5% (v/v) CO2 in complete RPMI medium (Dutch modified RPMI-1640 (Gibco) containing 10% FBS and 2 mM L-glutamine (Gibco)). Differentiation of THP-1 cells into macrophages was performed by seeding 2.5 × 10^5 cells/mL in complete RPMI media, supplemented with 20 ng/mL phorbol 12-myristate 13-acetate (PMA), followed by incubation at 37 °C with 5% (v/v) CO2 for 24 h.
(§3) The library was provided as 634 non-polar compounds (1 mg/mL in DMSO). Initial screening was performed in a 96-well plate with 200 μL of parasite culture. The initial screen used each compound at a final concentration of 2 μM for L. mexicana axenic amastigotes, T. brucei and P. falciparum, and at 1 μM for T. evansi. L. mexicana axenic amastigotes were plated at 1 × 10^6 cells/mL, incubated for 72 h, and the Alamar Blue assay was used to assess parasite growth. Each compound was tested in triplicate, with two biological replicates (n = 6). T. brucei and T. evansi were plated at 1×10^5 cells/mL for 48 h, and the Alamar Blue assay was used to assess parasite growth. Each compound was tested in triplicate with two biological replicates (n = 6). Intraerythrocytic P. falciparum in the trophozoite stage were seeded at 0.5% parasitaemia and 2% haematocrit for 48 h, and the Malaria SYBR-Green I fluorescence assay was used to assess parasite growth. Each compound was tested in duplicate with two biological replicates (n = 4). Negative controls comprised an equivalent volume of DMSO (equivalent of 1% v/v) to normalise the growth data. Data points >100% growth and <0% growth were tabulated as 100% and 0%, respectively. Some compounds were not tested in all parasite lines as there was insufficient material remaining.

T. brucei = assay: Concentration-response EC50, T. brucei; assay type: cell-based, Trypanosoma brucei brucei; conditions: for EC50: Trypanosoma brucei, 48 h
Description: as §4

[2] = system: P. falciparum Dd2Luc intraerythrocytic trophozoites; assay: Initial screen, intraerythrocytic P. falciparum, Malaria SYBR-Green I fluorescence assay; assay type: cell-based, Plasmodium falciparum; conditions: for initial hit against P. falciparum: 2 μM, growth reduced by ≥50%; for inhibition of growth at 2 µM / activity at 2 µM: Plasmodium falciparum, 48 h; for inhibition of growth at 2 µM: read-out: initial hit P.f
Description: as §1, with “≥50%. […]” for “≥50%.”
as §3, with “The PhytoQuest Phytopure library is a commercially available collection of purified compounds isolated predominantly from temperate zone plants, with structures confirmed by NMR and mass spectrometry. The library” for “The library”

P. falciparum 3D7 = assay: Concentration-response EC50, P. falciparum 3D7; assay type: cell-based; conditions: Plasmodium falciparum
Source text: This is not surprising as the rate of kill is a result of the mechanism of cell death and, given their structural similarity, these three bisobolane sesquiterpene glycosides likely share the same target(s), albeit with some differences in affinity. The rate of kill, relatively, falls between that of atovaquone and dihydroartemisinin and is more similar to that of chloroquine.

[3] = system: L. mexicana axenic amastigotes; assay: Initial screen, L. mexicana axenic amastigotes, Alamar Blue; assay type: cell-based, Leishmania mexicana; conditions: for activity at 2 µM / inhibition of growth at 2 µM: Leishmania mexicana; for initial hit against L. mexicana / inhibition of growth at 2 µM: 2 μM; for initial hit against L. mexicana: growth inhibited by ≥80%; for inhibition of growth at 2 µM: x = initial hit, read-out: initial hit L.m
Description: as §1, with “≥50%. […]” for “≥50%.”
as §3, with “The PhytoQuest Phytopure library is a commercially available collection of purified compounds isolated predominantly from temperate zone plants, with structures confirmed by NMR and mass spectrometry. The library” for “The library”

[4] = system: T. evansi bloodstream form; assay: Initial screen, T. evansi bloodstream form, Alamar Blue; assay type: cell-based, Trypanosoma evansi; conditions: Trypanosoma evansi, initial screen; compared to a normalised control with same concentration of DMSO solvent; read-out: mean % growth, T. evansi
Description: as §1, §2, §3

[5] = Cytotoxicity CC50, differentiated THP-1, Alamar Blue; assay type: cell-based, human; conditions: human, THP-1 cells differentiated into macrophages with PMA, differentiated THP-1, 48 h; read-out: THP1 CC50
Source text: The four lanosterone-like sterols derived from the Noble Fir Abies procera (700022, 700107, 700136) and the Grand Fir Abies grandis (700240) were the only initial compounds taken forward for L. mexicana due to their nanomolar activity and apparent low cytotoxicity (Figure 3a). […] Understanding the impact of the ring-opened lactone head group in this compound compared to the other three warrants further analysis in exploring their structure-activity relationships. These four sterols were also tested for growth inhibitory activity against L. donovani axenic amastigotes. […] As Leishmania spp. amastigotes typically reside with macrophages, further cytotoxicity assays with these sterols were performed against an activated monocyte cell line (THP-1) (Figure 4b). […]

[6] = system: L. mexicana axenic amastigotes; assay: Concentration-response EC50, L. mexicana axenic amastigotes (WT); assay type: cell-based, Leishmania mexicana; conditions: Leishmania mexicana, 72 h, read-out: L. mexicana EC50, axenic amastigotes, 72 h
Description: as §4

in vitro = conditions: human, pH 7, HepG2 CC50
Source text: Initial hits from the parasite panel screen were taken forward in log concentration versus normalised response assays to estimate the half maximal effective concentration (EC50) in hit species as well as the half maximal cytotoxic concentrations (CC50) in the human hepatoma cell line HepG2 as a preliminary test for selectivity. Using CC50/EC50 to define the selectivity index (SI), the selectivity for each compound in a defined species compared to a human cell line was estimated and compared to the EC50 (Figure 3).
as §2
EC50 values were determined by serial two-fold dilution of each compound in 96 well plates. Culture conditions and viability assays were as stated for the initial screen, with some exceptions. L. mexicana and L. donovani axenic amastigotes were seeded at 2 × 10^6 cell/s mL, T. brucei and T. evansi were seeded at 2 × 10^5 cells/mL. For cytotoxicity studies, HepG2 cells were seeded at 1 × 10^5 cells/mL, incubated for 48 h and viability was assessed using the Alamar Blue assay. Differentiated THP-1 cells were seeded at 5 × 10^4 cells/mL, incubated for 48 h, and viability was assessed by the Alamar Blue assay. Normalised growth and viability data (compared to untreated controls) were plotted against Log10 concentration to estimate EC50 in GraphPad (Prism v6). Bioluminescence relative rate of kill assays in asexual intraerythrocytic P. falciparum Dd2^Luc were carried out as described.

[7] = mean % growth compared to a normalised control with same concentration of DMSO solvent, initial screen
[8] = 3D7, read-out: P. falciparum 3D7 EC50
[9] = read-out: % growth L. mexicana, mean % growth compared to a normalised control with same concentration of DMSO solvent, initial screen
[10] = initial screen, compared to a normalised control with same concentration of DMSO solvent, read-out: mean % growth, T. b. brucei
[11] = read-out: mean % growth, P. falciparum, initial screen, compared to a normalised control with same concentration of DMSO solvent
[12] = 3D7, intraerythrocytic, read-out: P. falciparum 3D7 EC50
[13] = read-out: mean % growth, L. mexicana, initial screen, compared to a normalised control with same concentration of DMSO solvent
[14] = bloodstream form, read-out: T. brucei EC50

| Compound | EC50 (P. falciparum Dd2Luc) [nM] | initial hit against T. brucei ([1]; 2 μM) | initial hit against P. falciparum [2] | inhibition of growth at 2 µM [2] [%] | activity at 2 µM [1, 10] [%] | activity at 2 µM [2, 11] [%] | activity at 1 µM [4] [%] | activity at 2 µM [3, 13] [%] | CC50 at 48 h [5] [nM] | EC50 [6] [nM] | initial hit against L. mexicana [3] | inhibition of growth at 2 µM [3] [%] | further results |
| --- | --- | --- | --- | --- | --- | --- | --- | --- | --- | --- | --- | --- | --- |
| CC(=O)OC1C(O)C(C)OC(OC2C(OC(=O)C3CC[C@@H]4[C@H](C3)OC3(CC(OC(=O)/C=C/c5ccccc5)[C@@H](C)CO3)C43CO3)OC(CO)C(O)C2OC(C)=O)C1O (some centres unmarked) [Compound 700048] | 150 | initial hits | initial hits | > 50 | – | – | – | – | – | – | – | – | inhibition of growth at 2 µM [1]: > 50%; % growth T. b. brucei [1, 7]: 5.8%; EC50 (T. brucei; read-out: T. brucei EC50, bloodstream form, 48 h): 160 nM; selectivity index (HepG2 CC50 / T. brucei EC50) (T. brucei; preliminary selectivity against HepG2): > 10; %growth P. falciparum [2, 7]: 20.3%; EC50 (P. falciparum 3D7; [8]): 360 nM; activity at 2 µM [3, 9]: 89% |
| COc1cc(/C=C/C(=O)OC2CC3(C[C@H]4C=C(C(=O)OC5OC(CO)C(O)C(OC(C)=O)C5OC5OC(C)C(O)C(OC(C)=O)C5O)CC[C@H]4C34CO4)OC[C@@H]2C)ccc1O (some centres unmarked) [Compound 700104] | 750 | – | initial hits | > 50 | – | – | – | – | – | – | – | – | activity at 2 µM ([1]; read-out: % growth T. b. brucei, mean % growth compared to a normalised control with same concentration of DMSO solvent, initial screen): 69.7%; activity at 2 µM ([2]; read-out: %growth P. falciparum, mean % growth compared to a normalised control with same concentration of DMSO solvent, initial screen): 31.6%; EC50 (P. falciparum 3D7; [8]): 350 nM; activity at 2 µM [3, 9]: 146% |
| C=C1C(OC(=O)/C=C/c2ccccc2)C(CC(C)=O)C(O)C2(C)CCC3=C(C)C(OC(C)=O)CC(CC12)C3(C)C (centres unmarked) [Compound 700535] | 2300 | – | initial hits | > 50 | 99.4 | 31 | 78.7 | 68.2 | – | – | – | – | EC50 (P. falciparum 3D7; [12]): 3300 nM |
| CC#CC#CC(=O)c1cccc(OC)c1C(=O)OC [Compound 701044] | – | – | – | – | 79.3 | 92.6 | 90.3 | -4.5 | 2200 | 330 | initial hits | > 80 | – |
| CC(=O)OC1C(COC(=O)/C=C/c2ccc(O)cc2)OC(Oc2c(-c3ccc(O)cc3)oc3cc(O)cc(O)c3c2=O)C(OC(=O)/C=C/c2ccc(O)cc2)C1OC(C)=O (centres unmarked) [Compound 701082] | 1200 | initial hits | – | – | 5 | 77 | – | 67.8 | – | – | – | – | CC50 at 48 h (in vitro): 4600 nM; inhibition of growth at 2 µM ([1]; 2 μM, x = initial hit): > 50%; EC50 (T. brucei; [14]): 1100 nM; EC50 (P. falciparum 3D7; [12]): 1600 nM |
| C=C(CC)C(=O)OC1CC(=C)C2CC(O)C(=C)C2C2OC(=O)C(=C)C12 (centres unmarked) [Compound 701212] | – | – | – | – | 77.1 | 84.7 | 86.5 | 1.5 | 520 | 330 | initial hits | > 80 | – |
| CC#CC#CCc1cccc(O)c1 [Compound 701241] | – | initial hits | – | – | -1.9 | 96.5 | – | 15 | 270 | 330 | initial hits | > 80 | CC50 at 48 h (in vitro): 670 nM; inhibition of growth at 2 µM ([1]; 2 μM, x = initial hit): > 50%; EC50 (T. brucei; [14]): 2200 nM |
